How the values were obtained:
PP1c = PP1c (Homo sapiens, UniProt P36873); experiment: SPR, compounds binding to PP1c alone immobilized on streptavidin chip; design: cDNA encoding for human PP1cγ (aa 1-322) was cloned into two baculovirus transfer vectors; made in house; host or cells: Sf9 insect cells (baculovirus); details: PP1c immobilized on SA chip
Protocol: Small molecules were stored as 50 mM stock solutions in 100% DMSO. […] If necessary the concentration range was adjusted to accurately determine the KD depending on the initial results. […] This was followed by 1 min stabilization period, to wash off any unspecific binding. […] After each dilution series, the surface was regenerated using 3 M NaCl for 90 s. […] In order to be able to correct for small variations in DMSO concentration between samples, eight solvent samples ranging from 0.06 to 8% DMSO were injected every 50th cycle. The flow cell temperature was 20°C.

[1] = Pharmacokinetics after single oral administration in mice; format: in vivo; details: mouse
Protocol: (§1) The acetate salts of Raphin1 or GBZ were dissolved in water and sonicated for 10 min. The solution was aliquoted and kept at −20°C until use. Once thawed a tube was kept at 4°C and used within 24 hr. The compounds were administered by oral gavage.
(§2) Raphin1 was administered at 2 mg/kg (unless otherwise specified). Mice received a single dose or were treated chronically – one time per day. Control mice were treated with vehicle (water) only.
Pharmacokinetics studies were performed by XenoGesis Ldt. Raphin1 was administrated orally in 6 weeks old treatment- and test-naive C57BL/6J males. Plasma samples were prepared by protein precipitation with methanol containing internal standards. Tissues were weighed and prepared by homogenization (1:3 in phosphate buffered saline) and protein precipitated with methanol containing internal standard. Following the addition of methanol, plasma and tissue samples were placed at −20°C for ≥ 1 hr (or overnight) to allow proteins to precipitate. The samples were then centrifuged at 2,500 x g (3,400 rpm) for 20 min at 4°C. The supernatants were analyzed by LC-MS/MS.

brains of R15a −/− mice = experiment: Monitoring translation rates in vivo, brains of R15a −/− mice; design: species or system mouse; details: 40 mg/kg
Protocol: 3 months old treatment- and test-naive C57BL/6J males were treated as indicated. 30 min before the end of treatment mice were injected intraperitoneally with 0.75 mCi/kg radioactive label – 75% ^35S-methionine + 25% ^35S-cystine (Hartmann Analytic). At the end of treatment mice were culled by cervical dislocation, brains were extracted, fresh-frozen in liquid nitrogen and kept at −80°C until use. Tissue was homogenized and lysed in Laemmli Buffer (1 mL for 0.5 mg tissue). Lysates were boiled at 95°C for 5 min, sonicated and resolved on Bolt SDS-PAGE 4%–12% Bis-Tris gels (ThermoFisher Scientific). Gels were then stained with InstantBlue (Expedeon) and after the gels had been imaged they were transferred to a 20% ethanol, 7% acetic acid, 4% glycerol solution for 10 min. This was to prevent the gels from cracking while drying. The gels were transferred to filter paper and dried using a gel dryer. The gels were then exposed to a Storage Phosphor Screen (GE Healthcare) and analyzed by phosphorimaging using a Typhoon Imager Scanner (GE Healthcare).

[2] = Monitoring Raphin1 stability in cell culture media; format: physicochemical; details: 10 μM, 37°C, 0-10 hr, mass spectrometry
Protocol: Raphin1, 10 μM (from a 10 mM DMSO stock), was added to 20 mL of pre-warmed water or cell culture media, in tightly-sealed 20 mL glass vials to reduce evaporation and incubated in an incubator at 37°C. 50 μL samples were taken at 0, 1, 2, 5, 7.5 and 10 hr and added to an Eppendorf tube containing 200 μL of chilled acetonitrile and internal standards. The samples were stored in a −20°C freezer until the end of the study. The samples were then analyzed by mass spectrometry using a TQ-S micro Triple Quadrupole from Waters and compared against a standard curve prepared in the same manner as the samples.

HeLa cells [3] = experiment: Assessment of translation rates (35S-methionine), HeLa cells; format: cell-based, human; details: HeLa cells
Protocol: HeLa or MEF cells (90,000 cells/mL) were plated in 12-well plates (1 mL/well). The following day cells were treated as indicated; the medium was removed, fresh medium containing compound added and incubated at 37°C for the times indicated. The time course was performed in reverse order to facilitate labeling all samples at the same time. After the treatment the cells were labeled with 100 μCi/mL ^35S-methionine (Hartmann Analytic) for 10 min at 37°C (300 μL fresh medium containing 3 μL ^35S-methionine was added to each well). Note that cells were not starved in methionine-free media before labeling with ^35S-methionine for monitoring protein synthesis. The labeled cells were then washed twice with ice-cold PBS and lysed in 120 μL Laemmli Buffer. Lysates were transferred to 1.5 mL eppendorf tubes, boiled at 95°C for 5 min, sonicated and resolved on Bolt SDS-PAGE 4%–12% Bis-Tris gels (ThermoFisher Scientific). Gels were then stained with InstantBlue (Expedeon) and after the gels had been imaged they were transferred to a 20% ethanol, 7% acetic acid, 4% glycerol solution for 10 min. This was to prevent the gels from cracking while drying. The gels were transferred to filter paper and dried using a gel dryer. The gels were then exposed to a Storage Phosphor Screen (GE Healthcare) and analyzed by phosphorimaging using a Typhoon Imager Scanner (GE Healthcare).

HeLa cells [4] = experiment: Monitoring cell viability (CellTox Green, IncuCyte); format: cell-based
Protocol: HeLa cells (40,000 cells/mL) were plated in 96-well plates (0.1 mL/well). The following day the cells were treated with different concentrations of Raphin1, in triplicate, as indicated and incubated at 37°C for 48 hr. To monitor cell death 1:2,000 dilution of the CellTox Green Dye (Promega) was added to the medium. The growth of the cells was monitored over time and pictures taken every 2 hr (two per well) with the IncuCyte ZOOM system (Essen BioScience). The default software parameters for a 96-well plate (Corning) with a 10x objective were used for imaging and the images were analyzed by the IncuCyte ZOOM software (Essen BioScience). The software was used to calculate the confluency from the two non-overlapping images of each well at each time point. The phase confluency refers to the percentage of the image area that is occupied by cells. The green confluency refers to the percentage of the image area that fluoresces green. The CellTox Green Dye (Promega) preferentially stains dead cells’ DNA, but is excluded from viable cells. To assess the effect of Raphin1 on cell viability, the percentage of dead cells was calculated as follows: %ofdeadcells=Greenconfluency(%)atXhours/Phaseconfluency(%)atXhours×100

[5] = Body weight gain of wild-type mice under chronic treatment; format: in vivo, mouse; details: various doses once a day (2 mg/kg for 10 weeks; 15 days at indicated doses)
Protocol: as §1, §2
Mice were weighted on a dedicated scale (A&D, FX3000iWP). 4 weeks old treatment and test naive C57BL/6J males and females (Figure 6B) and 2 months old treatment and test naive C3H/B6 males (Figure S6A) were used.

Chain of PP1c (P36873 1-322): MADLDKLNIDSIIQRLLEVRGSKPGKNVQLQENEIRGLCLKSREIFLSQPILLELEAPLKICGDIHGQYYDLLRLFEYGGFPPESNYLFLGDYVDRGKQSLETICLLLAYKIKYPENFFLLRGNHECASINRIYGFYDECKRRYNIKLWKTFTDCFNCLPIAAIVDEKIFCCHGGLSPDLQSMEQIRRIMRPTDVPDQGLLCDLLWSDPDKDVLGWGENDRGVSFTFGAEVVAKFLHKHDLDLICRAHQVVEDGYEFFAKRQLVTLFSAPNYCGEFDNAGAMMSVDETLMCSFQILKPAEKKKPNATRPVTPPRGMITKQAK

For `[H]/N=C(\N)NN=Cc1cccc(Cl)c1Cl` [Raphin1, (E)-2-(2,3-dichlorobenzylidene)hydrazine-1-carboximidamide], the “Binding to PP1c alone (in words)” value (PP1c) was “did not bind”, the half-life ([1]; male, C57BL/6J, brain, single oral dose 2 mg/kg) was 240 to 360 min and the “Oral bioavailability (in words)” value [1] was “orally bioavailable”. The Blood-brain barrier crossing ([1]; single oral dose 2 mg/kg) was “crossed the blood-brain barrier”, the “Peak concentration in the brain” value ([1]; single oral dose 2 mg/kg) was roughly 1.5 µM and the “Translation recovery in the brains (in words)” value (brains of R15a −/− mice) was “recovery was reduced”. The “Stability in cell culture media over time” value [2] was “stable”, the “Protein synthesis (in words)” value (HeLa cells [3]; 20 μM) was “persistent inhibition” and the “Raphin1-induced eIF2α phosphorylation and translation attenuation” value (HeLa cells [3]; Raphin1 10 μM in the presence of the R15A inhibitor GBZ 10 μM) was “persisted”. For the same compound, the “Protein synthesis (in words)” value (HeLa cells [3]; unstressed, 10 μM) was “decreased”, the “Toxicity to cells (% of dead cells)” value (HeLa cells [4]; 20 μM) was “toxic” and the “Toxicity to cells (% of dead cells)” value (HeLa cells [4]; concentration corresponding to brain level after 2 mg/kg (∼1.5 μM), continuously applied for 48 hr) was “not toxic”. The “Adverse effects on weight gain” value [5] was “no obvious adverse effects”.
